Patent US20260000692A1, “Substituted N-(Pyridin-2-yl)Acetamide Derivatives as CDK12/13 Inhibitors” (Aurigene Oncology Limited, priority 2022, published 2026)

Target: CDK12 (Homo sapiens, UniProt Q9NYV4)
Experiment: Biochemical assay for CDK12 (LANCE TR-FRET, IC50 determination)
Settings: for IC50: CDK12, IC50 class, read-out: IC50 μM (in range); for inhibition at 10 µM / CDK12 % Inhibition @ 10 μM: compound at 10 μM; for inhibition at 10 µM: read-out: CDK12 % Inhibition @ 10 μM
Method: Biochemical Assay for CDK12 (IC50 Determination):
The inhibitory activity of the test compounds was assessed by the LANCE TR-FRET assay, which detects the ATP-dependent phosphorylation of an ULight-4E-BP1 (Thr37/Thr46) substrate peptide (100 nM) by CDK12 (30 nM). Briefly, the enzyme reaction was run in reaction buffer (25 mM HEPES (pH 7.5), 10 mM MgCl2, […], 0.01% Triton x, 1 mM DTT). The assay was performed in 384-well plate format. The end concentration of the ATP substrate was […], and that of the ULight-4E-BP1 (Thr37/Thr46) substrate peptide was 100 nM, and of CDK12 was 30 nM. Pre-incubation of the compound and enzyme was performed for 60 min at room temperature. After 60 min incubation at room temperature, the reaction was terminated by the addition of 40 mM EDTA and 0.5 nM Eu-labeled anti-phospho-eIF4E-binding protein (Thr37/46) antibody in LANCE detection buffer. Time-resolved fluorescence (excitation, 320 nm; emission donor, 615 nm; emission acceptor, 665 nm) was monitored by using 2030 multilabel reader Victor5 (PerkinElmer). The Fluorescence emission of the samples were measured and the ratio was plotted against the compound concentration to generate the dose response curve. The IC50 values were derived by fitting a sigmoidal dose-response curve to a plot of assay readout over inhibitor concentration. All fits were computed with the program Prism 5.03 (Graph Pad Software, San Diego, CA). The % inhibition values at […] were calculated with respect to enzyme activity.

Chain of CDK12 (Q9NYV4 whole entry): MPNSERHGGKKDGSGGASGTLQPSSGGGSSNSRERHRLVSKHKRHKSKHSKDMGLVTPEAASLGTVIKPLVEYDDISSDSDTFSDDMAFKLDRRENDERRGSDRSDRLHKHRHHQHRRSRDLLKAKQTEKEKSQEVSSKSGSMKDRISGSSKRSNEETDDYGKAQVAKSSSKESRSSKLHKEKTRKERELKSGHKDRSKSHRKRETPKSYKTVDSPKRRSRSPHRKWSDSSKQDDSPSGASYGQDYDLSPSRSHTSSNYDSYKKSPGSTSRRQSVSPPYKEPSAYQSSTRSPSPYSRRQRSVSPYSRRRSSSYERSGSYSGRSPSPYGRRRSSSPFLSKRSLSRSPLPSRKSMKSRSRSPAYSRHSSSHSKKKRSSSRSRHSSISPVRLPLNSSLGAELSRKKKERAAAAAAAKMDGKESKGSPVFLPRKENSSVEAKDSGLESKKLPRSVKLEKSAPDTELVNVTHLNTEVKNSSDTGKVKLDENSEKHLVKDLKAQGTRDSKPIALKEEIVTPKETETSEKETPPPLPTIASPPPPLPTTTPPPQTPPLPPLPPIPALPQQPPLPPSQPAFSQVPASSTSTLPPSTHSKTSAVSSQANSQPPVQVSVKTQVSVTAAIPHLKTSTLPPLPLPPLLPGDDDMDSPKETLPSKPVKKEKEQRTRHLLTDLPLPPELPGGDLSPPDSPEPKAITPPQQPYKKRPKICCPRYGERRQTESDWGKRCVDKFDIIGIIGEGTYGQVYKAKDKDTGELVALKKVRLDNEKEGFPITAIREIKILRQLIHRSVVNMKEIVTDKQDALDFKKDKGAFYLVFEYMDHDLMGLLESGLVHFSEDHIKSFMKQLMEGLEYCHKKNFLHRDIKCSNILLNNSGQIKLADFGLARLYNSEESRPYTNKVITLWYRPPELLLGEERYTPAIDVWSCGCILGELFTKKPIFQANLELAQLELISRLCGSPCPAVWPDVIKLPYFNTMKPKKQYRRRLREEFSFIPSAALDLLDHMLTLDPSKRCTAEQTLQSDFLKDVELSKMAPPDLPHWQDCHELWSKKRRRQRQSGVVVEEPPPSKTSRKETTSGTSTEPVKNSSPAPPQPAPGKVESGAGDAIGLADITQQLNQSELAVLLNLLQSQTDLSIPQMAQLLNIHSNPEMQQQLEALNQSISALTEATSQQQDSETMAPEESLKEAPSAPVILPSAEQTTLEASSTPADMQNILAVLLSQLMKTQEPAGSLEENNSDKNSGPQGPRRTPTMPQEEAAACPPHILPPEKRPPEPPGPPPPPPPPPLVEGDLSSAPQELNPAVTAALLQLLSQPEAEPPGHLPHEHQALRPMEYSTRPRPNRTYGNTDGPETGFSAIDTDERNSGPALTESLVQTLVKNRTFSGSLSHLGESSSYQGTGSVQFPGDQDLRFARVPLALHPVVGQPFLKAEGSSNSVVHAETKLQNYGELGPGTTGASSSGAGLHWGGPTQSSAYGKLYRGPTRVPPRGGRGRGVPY
Chain of CDK12 (O75909 whole entry partner): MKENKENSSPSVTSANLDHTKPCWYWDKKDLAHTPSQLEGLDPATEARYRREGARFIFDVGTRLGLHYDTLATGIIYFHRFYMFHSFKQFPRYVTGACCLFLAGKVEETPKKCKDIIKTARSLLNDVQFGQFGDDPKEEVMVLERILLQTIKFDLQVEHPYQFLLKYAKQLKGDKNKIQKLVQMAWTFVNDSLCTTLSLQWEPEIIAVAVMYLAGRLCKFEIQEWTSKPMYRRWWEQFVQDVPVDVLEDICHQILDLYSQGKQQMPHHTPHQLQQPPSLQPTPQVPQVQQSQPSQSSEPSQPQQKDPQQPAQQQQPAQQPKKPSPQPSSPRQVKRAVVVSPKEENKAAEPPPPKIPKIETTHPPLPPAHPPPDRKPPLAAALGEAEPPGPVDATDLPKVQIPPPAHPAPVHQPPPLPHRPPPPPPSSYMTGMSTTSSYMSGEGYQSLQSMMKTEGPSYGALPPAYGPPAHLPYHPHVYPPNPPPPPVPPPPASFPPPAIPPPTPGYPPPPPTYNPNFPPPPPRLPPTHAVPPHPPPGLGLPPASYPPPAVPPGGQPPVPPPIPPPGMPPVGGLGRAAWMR

Compound | IC50 | inhibition at 10 µM | CDK12 % Inhibition @ 10 μM
COc1cc(NC(=O)Cc2ccc(-c3cc(OC4CCN(C)C4)cc(C#N)n3)nc2)ncc1Cl (stereo not shown) [Compound 171, N-(5-chloro-4-methoxypyridin-2-yl)-2-(6′-cyano-4′-((1-methylpyrrolidin-3-yl)oxy)-[2,2′-bipyridin]-5-yl)acetamide] | < 0.01 µM | 83% | –
CNC(=O)C(C)Oc1cc(NC(=O)Cc2ccc(C3CCCN(C#N)C3)nc2)ncc1Cl (single isomer, unassigned) [Compound 91, 2-((5-chloro-2-(2-(6-(1-cyanopiperidin-3-yl)pyridin-3-yl)acetamido)pyridin-4-yl)oxy)-N-methylpropanamide] | 0.01 to 0.1 µM | – | 95%
CN1C2CCC1CC(Oc1cc(NC(=O)Cc3ccc(C4=CCCN(C#N)C4)nc3)ncc1Cl)C2 (stereo not shown) [Compound 62, N-(5-chloro-4-((8-methyl-8-azabicyclo[3.2.1]octan-3-yl)oxy)pyridin-2-yl)-2-(1′-cyano-1′,2′,5′,6′-tetrahydro-[2,3′-bipyridin]-5-yl)acetamide] | < 0.01 µM | 96% | –
COc1cc(NC(=O)Cc2ccc(-c3cnc(C#N)nc3)nc2)ncc1Cl [Compound 141, N-(5-chloro-4-methoxypyridin-2-yl)-2-(6-(2-cyanopyrimidin-5-yl)pyridin-3-yl)acetamide] | 0.01 to 0.1 µM | 92% | –
COc1cc(NC(=O)Cc2ccc(-c3cc(OC4CCCN(C)C4)cc(C#N)n3)nc2)ncc1Cl (stereo not shown) [Compound 199, N-(5-chloro-4-methoxypyridin-2-yl)-2-(6′-cyano-4′-((1-methylpiperidin-3-yl)oxy)-[2,2′-bipyridin]-5-yl)acetamide] | < 0.01 µM | 88% | –
COc1cc(NC(=O)Cc2ccc(-c3ccc(CN(C#N)C(C)C)nc3)nc2)ncc1Cl [Compound 132, N-(5-chloro-4-methoxypyridin-2-yl)-2-(6′-((N-isopropylcyanamido)methyl)-[2,3′-bipyridin]-5-yl)acetamide] | > 0.1 µM | 93% | –
COc1cc(NC(=O)Cc2ccc(C3CCN(C#N)CC3C)nc2)ncc1Cl (stereo not shown) [Compound 60, N-(5-chloro-4-methoxypyridin-2-yl)-2-(6-(1-cyano-3-methylpiperidin-4-yl)pyridin-3-yl)acetamide] | 0.01 to 0.1 µM | 87% | –
CNC(=O)[C@H](C)Oc1cc(NC(=O)Cc2cnc(C3CCN(C#N)CC3)c(OC)c2)ncc1Cl [Compound 128, (S)-2-((5-chloro-2-(2-(6-(1-cyanopiperidin-4-yl)-5-methoxypyridin-3-yl)acetamido)pyridin-4-yl)oxy)-N-methylpropanamide] | < 0.01 µM | 83% | –
CNC(=O)C(C)Oc1cc(NC(=O)Cc2ccc(-c3cccc(C#N)n3)nc2)ncc1Cl (racemic) [Compound 155, 2-((5-chloro-2-(2-(6′-cyano-[2,2′-bipyridin]-5-yl)acetamido)pyridin-4-yl)oxy)-N-methylpropanamide] | 0.01 to 0.1 µM | 97% | –
COc1cc(C#N)nc(-c2ccc(CC(=O)Nc3cc(OC)c(Cl)cn3)cn2)c1 [Compound 165, N-(5-chloro-4-methoxypyridin-2-yl)-2-(6′-cyano-4′-methoxy-[2,2′-bipyridin]-5-yl)acetamide] | 0.01 to 0.1 µM | 72% | –
CNC(=O)C(C)Oc1cc(NC(=O)Cc2ccc(C3=CCN(C#N)CC3)nc2)ncc1Cl (single isomer, unassigned) [Compound 2, 2-((5-chloro-2-(2-(1′-cyano-1′,2′,3′,6′-tetrahydro-[2,4′-bipyridin]-5-yl)acetamido)pyridin-4-yl)oxy)-N-methylpropanamide] | < 0.01 µM | 90% | –

More lines, now with the values ahead:

IC50 | inhibition at 10 µM | CDK12 % Inhibition @ 10 μM | Compound
< 0.01 µM | 102% | – | COc1cc(NC(=O)C(C)c2ccc(C3=CCN(C#N)CC3)nc2)ncc1Cl (single isomer, unassigned) [Compound 52]
< 0.01 µM | – | 87% | COc1cc(NC(=O)Cc2ccc(C3=CCN(C#N)C(C)C3)nc2)ncc1Cl (single isomer, unassigned) [Compound 68, N-(5-chloro-4-methoxypyridin-2-yl)-2-(1′-cyano-2′-methyl-1′,2′,3′,6′-tetrahydro-[2,4′-bipyridin]-5-yl)acetamide]
< 0.01 µM | 78% | – | N#CN1CC=C(c2ccc(CC(=O)Nc3ccc(Cl)cn3)cn2)C1 [Compound 6, N-(5-chloropyridin-2-yl)-2-(6-(1-cyano-2,5-dihydro-1H-pyrrol-3-yl)pyridin-3-yl)acetamide]
0.01 to 0.1 µM | 75% | – | N#CN1CC=C(c2ccc(CC(=O)Nc3ccc(Cl)cn3)cn2)CC1 [Compound 4, N-(5-chloropyridin-2-yl)-2-(1′-cyano-1′,2′,3′,6′-tetrahydro-[2,4′-bipyridin]-5-yl)acetamide]
0.01 to 0.1 µM | – | 87% | COc1cc(NC(=O)Cc2ccc(C3CCCN(C#N)C3)nc2)ncc1Cl (single isomer, unassigned) [Compound 80, N-(5-chloro-4-methoxypyridin-2-yl)-2-(6-(1-cyanopiperidin-3-yl)pyridin-3-yl)acetamide]
< 0.01 µM | 91% | – | COc1cc(NC(=O)Cc2ccc(C3=CCCN(C#N)C3)nc2)ncc1Cl [Compound 34, N-(5-chloro-4-methoxypyridin-2-yl)-2-(1′-cyano-1′,2′,5′,6′-tetrahydro-[2,3′-bipyridin]-5-yl)acetamide]
0.01 to 0.1 µM | 95% | – | CSc1ccc(NC(=O)Cc2ccc(C3=CCCN(C#N)C3)nc2)nc1 [Compound 107, 2-(1′-cyano-1′,2′,5′,6′-tetrahydro-[2,3′-bipyridin]-5-yl)-N-(5-(methylthio)pyridin-2-yl)acetamide]
< 0.01 µM | 88% | – | CN1CC[C@@H](Oc2cc(NC(=O)Cc3ccc(C4=CCCN(C#N)C4)nc3)ncc2Cl)C1 [Compound 38, (R)-N-(5-chloro-4-((1-methylpyrrolidin-3-yl)oxy)pyridin-2-yl)-2-(1′-cyano-1′,2′,5′,6′-tetrahydro-[2,3′-bipyridin]-5-yl)acetamide]
0.01 to 0.1 µM | 89% | – | N#CN1CCC(c2ccc(CC(=O)Nc3ccc(Cl)cn3)cn2)C1 (stereo not shown) [Compound 16, N-(5-chloropyridin-2-yl)-2-(6-(1-cyanopyrrolidin-3-yl)pyridin-3-yl)acetamide]
0.01 to 0.1 µM | 89% | – | CN(C)c1cc(NC(=O)Cc2ccc(C3=CCCN(C#N)C3)nc2)ncc1Cl [Compound 109, N-(5-chloro-4-(dimethylamino)pyridin-2-yl)-2-(1′-cyano-1′,2′,5′,6′-tetrahydro-[2,3′-bipyridin]-5-yl)acetamide]
0.01 to 0.1 µM | 86% | – | COc1cc(NC(=O)Cc2ccc(C3=CCN(C#N)CC3)cn2)ncc1Cl [Compound 127, N-(5-chloro-4-methoxypyridin-2-yl)-2-(1′-cyano-1′,2′,3′,6′-tetrahydro-[3,4′-bipyridin]-6-yl)acetamide]
< 0.01 µM | 88% | – | CN1CCC[C@H](Oc2cc(NC(=O)Cc3ccc(C4=CCN(C#N)CC4)nc3)ncc2Cl)C1 [Compound 33, (S)-N-(5-chloro-4-((1-methylpiperidin-3-yl)oxy)pyridin-2-yl)-2-(1′-cyano-1′,2′,3′,6′-tetrahydro-[2,4′-bipyridin]-5-yl)acetamide]
